Measurements as given in DBAASP.
In brackets after ≈: the same amount, converted by molar mass.

Tests used:
Assay in all cases: ≥ marks a high value that may be exact or a test limit, other limits are often not marked, values filed in µg/mL are converted to µM
Pseudomonas aeruginosa = system: Pseudomonas aeruginosa
[1] = system: Escherichia coli ATCC 25922
[2] = system: Pseudomonas aeruginosa ATCC 27853
[3] = system: Staphylococcus aureus ATCC 29213
[4] = system: Staphylococcus epidermidis ATCC 12228
Escherichia coli UB1005 = system: Escherichia coli UB1005
[5] = system: Staphylococcus aureus ATCC 25923
[6] = system: Pseudomonas aeruginosa PAO1
Staphylococcus aureus = system: Staphylococcus aureus
Escherichia coli = system: Escherichia coli
[7] = system: Enterococcus faecalis ATCC 29212
[8] = system: Salmonella enterica subsp. enterica serovar Typhimurium ATCC 14028

Question: Which MIC (Pseudomonas aeruginosa) does the source give for CC[C@H](C)[C@H](NC(=O)[C@H](Cc1ccccc1)NC(=O)[C@H](CO)NC(=O)[C@H](CCCCN)NC(=O)[C@H](Cc1c[nH]c2ccccc12)NC(=O)[C@@H](N)CCCCN)C(=O)N[C@@H](CC(N)=O)C(=O)N[C@@H](CCCCN)C(=O)N[C@@H](CC(C)C)C(=O)N[C@H](C(=O)N[C@@H](CO)C(=O)N[C@@H](CCCCN)C(=O)N[C@@H](Cc1ccccc1)C(=O)N[C@@H](CC(C)C)C(=O)N[C@@H](Cc1cnc[nH]1)C(=O)N[C@@H](CO)C(=O)N[C@@H](C)C(=O)N[C@@H](CCCCN)C(=O)N[C@@H](CCCCN)C(=O)N[C@@H](Cc1ccccc1)C(N)=O)[C@@H](C)O [KWKSFINKLTSKFLHSAKKF] here?
Answer: 5.13 µM (≈ 12.5 µg/mL)

Question: Which MIC [1] does the source give for CC(C)C[C@H](NC(=O)CNC(=O)[C@H](C)NC(=O)[C@H](CC(C)C)NC(=O)[C@H](CCCCN)NC(=O)[C@H](CCCCN)NC(=O)[C@H](C)NC(=O)[C@H](CC(C)C)NC(=O)CNC(=O)[C@H](C)NC(=O)[C@H](CC(C)C)NC(=O)[C@H](CCCCN)NC(=O)[C@H](CCCCN)NC(=O)[C@H](C)NC(=O)[C@H](CC(C)C)NC(=O)CNC(=O)[C@H](C)NC(=O)[C@H](CC(C)C)NC(=O)[C@@H](N)CCCCN)C(=O)N[C@@H](C)C(=O)N[C@@H](CCCCN)C(N)=O [KLAGLAKKLAGLAKKLAGLAK] here?
Answer: 3.88 µM (≈ 8 µg/mL)

Question: What about the MIC [2] of the same compound?
Answer: 62 µM (≈ 128 µg/mL)

Question: What about the MIC [3] of the same compound?
Answer: 7.75 µM (≈ 16 µg/mL)

Question: CC[C@H](C)[C@H](NC(=O)CN)C(=O)N[C@@H](CCCCN)C(=O)N[C@@H](CCCCN)C(=O)N[C@@H](Cc1c[nH]c2ccccc12)C(=O)N[C@@H](CC(C)C)C(=O)N[C@@H](Cc1cnc[nH]1)C(=O)N[C@@H](CO)C(=O)N1CCC[C@H]1C(=O)N[C@@H](CCCCN)C(=O)N[C@@H](CCCCN)C(=O)N[C@@H](Cc1ccccc1)C(=O)N1CCC[C@H]1C(=O)N[C@@H](CCCCN)C(=O)N[C@@H](CCCCN)C(=O)N[C@@H](Cc1ccccc1)C(=O)N[C@H](C(=O)N[C@@H](CCCCN)C(=O)N[C@@H](CCCCN)C(=O)N[C@H](C(=O)N[C@@H](CCSC)C(=O)N[C@@H](CC(N)=O)C(=O)N[C@@H](CO)C(N)=O)[C@@H](C)CC)C(C)C [GIKKWLHSPKKFPKKFVKKIMNS] was tested. Which MIC [1] did it give?
Answer: 10 µM (≈ 27.7 µg/mL)

Question: What about the MIC [4] of the same compound?
Answer: 2.5 µM (≈ 6.92 µg/mL)

Question: How did the MIC (Escherichia coli UB1005) turn out when CC(C)C[C@H](NC(=O)[C@H](Cc1ccc(O)cc1)NC(=O)[C@@H]1CCCN1C(=O)[C@@H]1CCCN1C(=O)[C@H](CCCCN)NC(=O)[C@@H]1CCCN1C(=O)[C@@H](N)C(C)C)C(=O)N1CCC[C@H]1C(=O)N[C@@H](CCCN=C(N)N)C(=O)N1CCC[C@H]1C(=O)N[C@@H](CCCN=C(N)N)C(=O)N1CCC[C@H]1C(=O)N1CCC[C@H]1C(=O)N[C@@H](CCCN=C(N)N)C(=O)N[C@@H](CCCN=C(N)N)C(=O)N[C@@H](CCCCN)C(=O)N[C@@H](Cc1ccc(O)cc1)C(=O)N[C@@H](CC(N)=O)C(=O)N[C@@H](Cc1cnc[nH]1)C(N)=O [VPKPPYLPRPRPPRRKYNH] was run?
Answer: 2.11 µM (≈ 5 µg/mL)

Question: And the MIC [5]?
Answer: 3.38 µM (≈ 8 µg/mL)

Question: What about the MIC [6] of the same compound?
Answer: 27 µM (≈ 64 µg/mL)

Question: For CC[C@H](C)[C@H](NC(=O)[C@H](C)NC(=O)[C@H](CO)NC(=O)[C@H](CC(C)C)NC(=O)[C@@H](N)Cc1ccccc1)C(=O)N[C@@H](C)C(=O)N[C@@H](CO)C(=O)N[C@@H](CCSC)C(=O)N[C@@H](CC(C)C)C(=O)NCC(=O)N[C@@H](CCCCN)C(=O)N[C@@H](Cc1ccccc1)C(=O)N[C@@H](CC(C)C)C(=O)O [FLSAIASMLGKFL], which MIC (Staphylococcus aureus) is on record?
Answer: 200 µM (≈ 280 µg/mL)

Question: For NCC(=O)N[C@@H](CCCN=C(N)N)C(=O)N[C@@H](CCCN=C(N)N)C(=O)N1CCC[C@H]1C(=O)N[C@@H](CCCN=C(N)N)C(=O)N1CCC[C@H]1C(=O)N[C@@H](CCCN=C(N)N)C(=O)N1CCC[C@H]1C(=O)N[C@@H](CCCN=C(N)N)C(=O)N1CCC[C@H]1C(N)=O [GRRPRPRPRP], which MIC [1] is on record?
Answer: > 160 µM

Question: What about the MIC [2] of the same compound?
Answer: > 160 µM

Question: And the MIC [3]?
Answer: > 160 µM

Question: How did the MIC (Pseudomonas aeruginosa) turn out when CC(C)C[C@H](NC(=O)[C@H](Cc1ccccc1)NC(=O)[C@H](CCCCN)NC(=O)[C@H](CO)NC(=O)[C@@H](NC(=O)[C@H](CC(C)C)NC(=O)[C@H](CCCCN)NC(=O)[C@H](CCCCN)NC(=O)[C@H](CCCCN)NC(=O)[C@H](Cc1ccccc1)NC(=O)[C@H](CO)NC(=O)[C@H](CCCCN)NC(=O)[C@H](Cc1c[nH]c2ccccc12)NC(=O)[C@@H](N)CCCCN)[C@@H](C)O)C(=O)N[C@@H](Cc1cnc[nH]1)C(=O)N[C@@H](CO)C(=O)N[C@@H](C)C(=O)N[C@@H](CCCCN)C(=O)N[C@@H](CCCCN)C(=O)N[C@@H](Cc1ccccc1)C(N)=O [KWKSFKKKLTSKFLHSAKKF] was run?
Answer: 5.06 µM (≈ 12.5 µg/mL)

Question: Which results are given for CC(C)C[C@H](NC(=O)CNC(=O)[C@H](CCCCN)NC(=O)[C@H](C)NC(=O)[C@H](CC(C)C)NC(=O)[C@H](CCCCN)NC(=O)[C@H](C)NC(=O)[C@H](CC(C)C)NC(=O)CNC(=O)[C@H](CCCCN)NC(=O)[C@H](C)NC(=O)[C@H](Cc1c[nH]c2ccccc12)NC(=O)[C@H](CCCCN)NC(=O)[C@H](C)NC(=O)[C@H](CC(C)C)NC(=O)CNC(=O)[C@H](CCCCN)NC(=O)[C@H](C)NC(=O)[C@H](CC(C)C)NC(=O)[C@@H](N)CCCCN)C(=O)N[C@@H](C)C(N)=O [KLAKGLAKWAKGLAKLAKGLA]?
Answer: MIC (Staphylococcus aureus): 3.74 µM (≈ 8 µg/mL); MIC (Pseudomonas aeruginosa): 15 µM (≈ 32 µg/mL); MIC (Escherichia coli): 3.74 µM (≈ 8 µg/mL)

Question: CC[C@H](C)[C@H](NC(=O)[C@H](CCCCN)NC(=O)CNC(=O)CNC(=O)[C@H](CC(C)C)NC(=O)[C@H](CC(N)=O)NC(=O)[C@H](C)NC(=O)[C@H](C)NC(=O)[C@@H](N)CCC(=O)O)C(=O)N[C@@H](CC(C)C)C(=O)N[C@@H](CCC(=O)O)C(=O)N[C@@H](CCC(=O)O)C(=O)N[C@@H](CCCCN)C(=O)N[C@@H](CCCCN)C(=O)N[C@@H](CC(C)C)C(=O)N[C@@H](CO)C(=O)N[C@@H](CCCN=C(N)N)C(=O)N[C@@H](CC(C)C)C(=O)N1CCC[C@H]1C(=O)N1CCC[C@H]1C(=O)N[C@@H](CO)C(=O)N[C@@H](Cc1cnc[nH]1)C(=O)N[C@@H](CC(C)C)C(=O)O [EAANLGGKILEEKKLSRLPPSHL] was tested. Which MIC [1] did it give?
Answer: > 200 µM

Question: And the MIC [7]?
Answer: > 200 µM

Question: What about the MIC [8] of the same compound?
Answer: > 200 µM

Question: How did the MIC [1] turn out when CC[C@H](C)[C@H](NC(=O)[C@H](CCCCN)NC(=O)[C@H](CCCN=C(N)N)NC(=O)[C@@H](N)CCC(N)=O)C(=O)N[C@@H](CCCN=C(N)N)C(=O)N[C@H](C(=O)N[C@@H](CCCN=C(N)N)C(=O)N[C@@H](CC(C)C)C(=O)N[C@@H](CO)C(=O)N[C@@H](C)C(=O)O)C(C)C [QRKIRVRLSA] was run?
Answer: 1.63 µM (≈ 2 µg/mL)

Question: And the MIC [2]?
Answer: 3.26 µM (≈ 4 µg/mL)

Question: What about the MIC [3] of the same compound?
Answer: > 52.2 µM

Question: For CC[C@H](C)[C@H](NC(=O)[C@@H](NC(=O)[C@H](CC(N)=O)NC(=O)[C@H](CC(C)C)NC(=O)[C@H](CCSC)NC(=O)[C@@H](NC(=O)[C@H](Cc1ccccc1)NC(=O)[C@H](Cc1ccccc1)NC(=O)[C@H](CC(N)=O)NC(=O)[C@H](CCCCN)NC(=O)[C@H](CC(C)C)NC(=O)[C@H](CC(N)=O)NC(=O)[C@H](CCCCN)NC(=O)[C@@H](NC(=O)[C@@H](NC(=O)[C@@H](NC(=O)[C@H](C)NC(=O)[C@@H](NC(=O)[C@H](CCCCN)NC(=O)[C@@H](N)CCCCN)[C@@H](C)CC)[C@@H](C)CC)[C@@H](C)CC)[C@@H](C)O)[C@@H](C)CC)[C@@H](C)CC)C(=O)O [KKIAIITKNLKNFFIMLNII], which MIC [6] is on record?
Answer: > 128 µM

Question: How did the MIC (Staphylococcus aureus) turn out when CC[C@H](C)[C@H](NC(=O)CNC(=O)[C@H](CO)NC(=O)[C@H](CC(C)C)NC(=O)[C@@H](NC(=O)CN)[C@@H](C)CC)C(=O)N[C@@H](CC(C)C)C(=O)NCC(=O)N[C@@H](CCSC)C(=O)NCC(=O)N[C@@H](CCCCN)C(=O)N[C@@H](CCCCN)C(=O)N[C@@H](CC(C)C)C(=O)N[C@H](C(=O)N[C@H]1CSSC[C@@H](C(=O)O)NC(=O)[C@H](CC(C)C)NC(=O)CNC(=O)[C@H](CO)NC(=O)[C@H](CC(C)C)NC(=O)CNC1=O)C(C)C [GILSGILGMGKKLVCGLSGLC] was run?
Answer: 50 µM (≈ 101 µg/mL)

Question: What about the MIC (Escherichia coli) of the same compound?
Answer: 15 µM (≈ 30.3 µg/mL)

Question: With CC[C@H](C)[C@H](NC(=O)[C@H](CCCN=C(N)N)NC(=O)[C@H](CCCN=C(N)N)NC(=O)[C@@H](N)CCC(N)=O)C(=O)N[C@@H](CCCN=C(N)N)C(=O)N[C@H](C(=O)N[C@@H](CCCN=C(N)N)C(=O)N[C@@H](CC(C)C)C(=O)N[C@@H](CO)C(=O)N[C@@H](C)C(=O)O)C(C)C [QRRIRVRLSA] as the compound, how does the MIC [1] read?
Answer: 12.8 µM (≈ 16 µg/mL)

Question: What about the MIC [2] of the same compound?
Answer: 51 µM (≈ 64 µg/mL)

Question: And the MIC [3]?
Answer: > 51 µM

Question: Which MIC [1] does the source give for CC(C)C[C@H](NC(=O)[C@H](CCCCN)NC(=O)[C@H](CC(C)C)NC(=O)[C@H](CC(C)C)NC(=O)[C@H](CCCCN)NC(=O)[C@H](CCCCN)NC(=O)[C@H](CO)NC(=O)[C@H](CC(C)C)NC(=O)[C@H](CCCCN)NC(=O)[C@H](CC(C)C)NC(=O)[C@H](CC(C)C)NC(=O)[C@H](CCCCN)NC(=O)[C@H](CCCCN)NC(=O)[C@@H](N)CC(C)C)C(=O)N[C@@H](C)C(=O)NCC(=O)O [LKKLLKLSKKLLKLAG] here?
Answer: 2.5 µM (≈ 4.49 µg/mL)

Question: What about the MIC [3] of the same compound?
Answer: 10 µM (≈ 17.9 µg/mL)

Question: Which results are given for CC(C)C[C@H](NC(=O)[C@H](CCCCN)NC(=O)[C@H](CC(C)C)NC(=O)[C@H](CC(C)C)NC(=O)[C@H](CCCCN)NC(=O)[C@H](CCCCN)NC(=O)[C@H](CCC(=O)O)NC(=O)[C@H](CC(C)C)NC(=O)[C@H](CCCCN)NC(=O)[C@H](CC(C)C)NC(=O)[C@H](CC(C)C)NC(=O)[C@H](CCCCN)NC(=O)[C@H](CCCCN)NC(=O)[C@@H](N)CC(C)C)C(=O)N[C@@H](C)C(=O)NCC(=O)O [LKKLLKLEKKLLKLAG]?
Answer: MIC [1]: 5 µM (≈ 9.18 µg/mL); MIC [3]: > 40 µM
